Counter-ions that a name gives are not always drawn.

In general, IC50 refers to the concentration at which inhibition is half-maximal.

This assay deals with T1, human IKK-β (Homo sapiens, UniProt O14920).
T1 construct: A cDNA fragment encoding human IKK-β open reading frame was generated by PCR; His tag (from pcDNA3.1/His C); made in house; host or cells: Sf21 insect cells (baculovirus); substrate made in E. coli
T1 sequence (O14920 1-756): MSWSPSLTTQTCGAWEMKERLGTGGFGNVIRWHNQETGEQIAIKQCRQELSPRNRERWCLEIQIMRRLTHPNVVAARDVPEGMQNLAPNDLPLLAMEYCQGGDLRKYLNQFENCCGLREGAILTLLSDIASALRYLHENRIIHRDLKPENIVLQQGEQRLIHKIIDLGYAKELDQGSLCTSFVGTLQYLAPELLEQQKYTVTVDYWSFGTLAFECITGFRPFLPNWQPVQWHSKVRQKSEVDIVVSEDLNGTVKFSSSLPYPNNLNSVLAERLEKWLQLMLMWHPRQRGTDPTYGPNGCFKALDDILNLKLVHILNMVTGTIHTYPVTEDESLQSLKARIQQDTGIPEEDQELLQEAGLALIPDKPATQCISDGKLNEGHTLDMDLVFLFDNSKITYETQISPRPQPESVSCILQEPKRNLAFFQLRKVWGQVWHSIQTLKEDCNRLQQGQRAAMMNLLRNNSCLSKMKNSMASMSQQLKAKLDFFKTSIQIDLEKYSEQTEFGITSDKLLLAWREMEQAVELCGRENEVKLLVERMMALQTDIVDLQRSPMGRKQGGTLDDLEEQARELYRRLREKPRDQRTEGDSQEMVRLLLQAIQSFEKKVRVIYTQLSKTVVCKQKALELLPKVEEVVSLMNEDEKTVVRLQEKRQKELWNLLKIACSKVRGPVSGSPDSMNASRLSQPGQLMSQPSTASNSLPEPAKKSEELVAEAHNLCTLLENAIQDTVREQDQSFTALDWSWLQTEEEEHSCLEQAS
Description: IKK-β kinase inhibitory assay. The class given is biochemical. The note with it: compounds as yielded by solid phase synthesis, purity about 40 to 90%, read-out: In vitro activity grade (In vitro IC50). In short, it runs like this:
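His-tagged human IKK-β from baculovirus-infected Sf21 cells (0.6 μg/ml final) phosphorylates biotinylated GST-IκBα(1-54) (0.2 μM) in Tris-HCl pH 7.6 buffer with MgCl2. ATP with [γ-33P]ATP added, then 2 h at room temperature. Biotinylated substrate captured on streptavidin plates; bound radioactivity counted by scintillation.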
For `CCOC(=O)NCc1c(C2CCCNC2)cc(-c2c(O)cccc2OCC2CC2)nc1N` (centres unmarked) [Example 23-2, ethyl [2-amino-6-[2-(cyclopropylmethoxy)-6-hydroxyphenyl]-4-(3-piperidinyl)-3-pyridinyl]methylcarbamate hydrochloride], the IC50 was under 500 nM.

Consider `Nc1nc(-c2c(O)cccc2OCC2CC2)cc(C2CCCNC2)c1CNC(=O)NC1CCCCC1` (centres unmarked) [Example 23-3, N-{[2-amino-6-[2-(cyclopropylmethoxy)-6-hydroxyphenyl]-4-(3-piperidinyl)-3-pyridinyl]methyl}-N′-cyclohexylurea hydrochloride], for which the IC50 was under 500 nM. With `CC(=O)N1Cc2c(C3CCCNC3)cc(-c3c(O)cccc3OCC3CC3)nc2NC1=O` (centres unmarked) [Example 24-1, 3-acetyl-7-[2-(cyclopropylmethoxy)-6-hydroxyphenyl]-5-(3-piperidinyl)-3,4-dihydropyrido[2,3-d]pyrimidin-2(1H)-one hydrochloride] the figure was under 500 nM; with `Oc1cccc(OCC2CC2)c1-c1cc(C2CCCNC2)c2c(n1)NCCC2` (centres unmarked) [Example 28-01, 3-(cyclopropylmethoxy)-2-[4-(3-piperidinyl)-5,6,7,8-tetrahydro-1,8-naphthyridin-2-yl]phenol], under 500 nM; with `Nc1cc2c(C3CCCNC3)cc(-c3c(O)cccc3OCC3CC3)nc2[nH]c1=O` (centres unmarked) [Example 29-01, 3-amino-7-[2-(cyclopropylmethoxy)-6-hydroxyphenyl]-5-(3-piperidinyl)-1,8-naphthyridin-2(1H)-one hydrochloride], under 500 nM. In the case of `O=C(Nc1cc2c(C3CCCNC3)cc(-c3c(O)cccc3OCC3CC3)nc2[nH]c1=O)c1ccccc1` (centres unmarked) [Example 29-2, N-[7-[2-(cyclopropylmethoxy)-6-hydroxyphenyl]-2-oxo-5-(3-piperidinyl)-1,2-dihydro-1,8-naphthyridin-3-yl]benzamide hydrochloride] it was under 500 nM; in that of `CC(=O)Nc1cc2c(C3CCCNC3)cc(-c3c(O)cccc3OCC3CC3)nc2[nH]c1=O` (centres unmarked) [Example 29-3, N-[7-[2-(cyclopropylmethoxy)-6-hydroxyphenyl]-2-oxo-5-(3-piperidinyl)-1,2-dihydro-1,8-naphthyridin-3-yl]acetamide hydrochloride], under 500 nM. With `O=C(O)c1cc2c(C3CCCNC3)cc(-c3c(O)cccc3OCC3CC3)nc2[nH]c1=O` (centres unmarked) [Example 30-1, 7-(2-cyclopropylmethoxy-6-hydroxy-phenyl)-2-oxo-5-piperidin-3-yl-1,2-dihydro[1,8]naphthyridine-3-carboxylic acid hydrochloride] the figure was under 500 nM. With `CCCNC(=O)c1cc2c(C3CCCNC3)cc(-c3c(O)cccc3OCC3CC3)nc2[nH]c1=O` (centres unmarked) [Example 31-1, 7-[2-(cyclopropylmethoxy)-6-hydroxyphenyl]-2-oxo-5-(3-pipedinyl)-N-propyl-1,2-dihydro-1,8-naphthyridine-3-carboxamide], the IC50 is under 500 nM. Consider `CS(=O)(=O)NC(=O)c1cc2c(C3CCCNC3)cc(-c3c(O)cccc3OCC3CC3)nc2[nH]c1=O` (centres unmarked) [Example 31-2, N-{[7-[2-(cyclopropylmethoxy)-6-hydroxyphenyl]-2-oxo-5-(3-piperidinyl)-1,2-dihydro-1,8-naphthyridin-3-yl]carbonyl}methanesulfonamide hydrochloride], for which the IC50 was under 500 nM. Turning to `Nc1ncnc2nc(-c3c(O)cccc3OCC3CC3)cc(C3CCCNC3)c12` (centres unmarked) [Example 32-1, 2-[4-amino-5-(3-piperidinyl)pyrido[2,3-d]pyrimidin-7-yl]-3-(cyclopropylmethoxy)phenol hydrochloride], the IC50 fell in the range of 2000 to 10000 nM. Consider `N#Cc1ccc(-c2ccccc2O)nc1N` [Example 33-1, 2-amino-6-(2-hydroxyphenyl)nicotinonitrile], for which the IC50 fell in the range of 500 to 2000 nM. In the case of `N#Cc1c(N2CCOCC2)cc(-c2ccccc2O)nc1N` [Example 34-1, 2-amino-6-(2-hydroxyphenyl)-4-(4-morpholinyl)nicotinonitrile] it was 500 to 2000 nM; in that of `N#Cc1c(N2CCC(C(N)=O)CC2)cc(-c2ccccc2O)nc1N` [Example 34-2, 1-[2-amino-3-cyano-6-(2-hydroxyphenyl)-4-pyridinyl]-4-piperidinecarboxamide], 500 to 2000 nM; in that of `N#Cc1c(N2CCCC(N)C2)cc(-c2ccccc2O)nc1N` (centres unmarked) [Example 34-3, 2-amino-4-(3-amino-1-piperidinyl)-6-(2-hydroxyphenyl)nicotinonitrile hydrochloride], 500 to 2000 nM. For `N#Cc1c(NC2CCCNC2)cc(-c2ccccc2O)nc1N` (centres unmarked) [Example 34-4, 2-amino-6-(2-hydroxyphenyl)-4-(3-piperidinylamino)nicotinonitrile hydrochloride], the IC50 is under 500 nM.

As for `NCCNc1cc(-c2c(O)cccc2OCC2CC2)nc2c1COC(=O)N2` [Example 35-1, 5-[(2-aminoethyl)amino]-7-[2-(cyclopropylmethoxy)-6-hydroxyphenyl]-1,4-dihydro-2H-pyrido[2,3-d][1,3]oxazin-2-one hydrochloride], the IC50 is under 500 nM.

Values taken from patent US6984649B1, “Pyridine derivatives” (Bayer Aktiengesellschaft, priority 2000, dated 2006).
